Experimental findings from US20090221581A1, “Methods of treating pain” (priority 2005, published 2009) are described below.

Usually IC50 stands for the concentration that gives 50% inhibition.

The target of one assay is T1, CDK1/CycB (Homo sapiens, UniProt P06493).
T1 construct: made in house; host or cells: Sf9 insect cells, baculovirus
The experiment in a line: In vitro kinase inhibition assay, CDK1/CycB. Format: biochemical.

The target in another assay is T2, CDK9/CycT (Homo sapiens, UniProt P50750).
T2 construct: host or cells: Sf9 insect cells, baculovirus
T2 sequence (P50750 whole entry): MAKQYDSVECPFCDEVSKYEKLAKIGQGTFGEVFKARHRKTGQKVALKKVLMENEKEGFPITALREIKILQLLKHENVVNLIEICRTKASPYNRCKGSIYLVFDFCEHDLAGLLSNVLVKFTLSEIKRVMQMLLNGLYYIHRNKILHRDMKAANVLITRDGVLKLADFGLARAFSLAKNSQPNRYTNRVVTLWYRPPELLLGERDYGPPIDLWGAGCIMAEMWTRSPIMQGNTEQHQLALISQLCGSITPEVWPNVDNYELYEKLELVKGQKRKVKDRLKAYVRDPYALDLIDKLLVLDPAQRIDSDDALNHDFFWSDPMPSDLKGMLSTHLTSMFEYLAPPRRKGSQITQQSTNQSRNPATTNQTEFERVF
T2 sequence (O60563 whole entry partner): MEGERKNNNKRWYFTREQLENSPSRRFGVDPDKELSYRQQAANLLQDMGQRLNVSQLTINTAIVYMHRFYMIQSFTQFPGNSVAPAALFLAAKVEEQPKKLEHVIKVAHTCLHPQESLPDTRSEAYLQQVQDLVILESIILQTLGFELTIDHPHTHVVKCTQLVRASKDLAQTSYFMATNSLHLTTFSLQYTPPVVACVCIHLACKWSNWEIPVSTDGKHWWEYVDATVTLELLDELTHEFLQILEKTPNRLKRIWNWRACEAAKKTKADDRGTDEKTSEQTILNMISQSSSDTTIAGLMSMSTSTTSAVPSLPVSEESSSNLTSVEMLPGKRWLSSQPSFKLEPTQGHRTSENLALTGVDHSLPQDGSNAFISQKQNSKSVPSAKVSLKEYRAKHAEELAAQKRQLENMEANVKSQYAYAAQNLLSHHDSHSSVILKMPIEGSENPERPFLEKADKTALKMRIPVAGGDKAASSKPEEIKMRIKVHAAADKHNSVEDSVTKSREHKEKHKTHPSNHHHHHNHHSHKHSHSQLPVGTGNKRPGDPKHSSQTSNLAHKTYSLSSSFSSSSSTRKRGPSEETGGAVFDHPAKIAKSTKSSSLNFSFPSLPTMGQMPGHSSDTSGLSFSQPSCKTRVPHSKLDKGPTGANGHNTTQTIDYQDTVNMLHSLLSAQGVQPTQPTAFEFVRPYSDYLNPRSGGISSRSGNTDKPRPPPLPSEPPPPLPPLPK
The experiment in a line: In vitro kinase inhibition assay, CDK9/CycT. The class given is biochemical. The protocol:
In vitro kinase inhibition assays may be performed according to the following protocol:
Compounds are used as 1×10^−02 M stock solutions in 100% DMSO, 100 μl each in column 2 of three 96-well V-shaped microtiter plates (in the following, said plates are referred to as “master plates”).
Subsequently, the 1×10^−02 M stock solutions in column 2 of the master plates are subjected to a serial, semi-logarithmic dilution using 100% DMSO as a solvent, resulting in 10 different concentrations, the dilution endpoint being 3×10^−07 M/100% DMSO in column 12. Column 1 and 7 are filled with 100% DMSO as controls. […]
For the determination of inhibitory profiles, the following protein kinases were used: CDK2/CycA, CDK4/CycD1, CDK6/CycD1 and CDK9/CycT. […] The purity of each kinase is determined by SDS-PAGE/silver staining and the identity of each kinase is verified by western blot analysis with kinase specific antibodies or by mass spectroscopy. […]
Reaction mixtures are incubated at 30° C. for 80 minutes. […] Incorporation of ^33P is determined with a microplate scintillation counter (Microbeta, Wallac). […]
The median value of the counts in column 1 (n=8) of each assay plate is defined as “low control”. This value reflects unspecific binding of radioactivity to the plate in the absence of a protein kinase but in the presence of the substrate. […]

The subject of assay [1] is TNFα expression in microglial cell line (EOC20). Put plainly: TNFα expression in microglial cells, Real-Time PCR. The class given is cell-based, human. The protocol: In order to validate the hypothesis that TNFα stimulation is regulated by an autocrine loop (i.e., TNFα induces expression of TNFα; see FIG. 2), a microglial cell line (EOC20) […] was stimulated in vitro by addition of TNFα (20 ng/ml).
1 hour prior to addition of TNFα, stimulated or unstimulated cells, respectively, were treated with DMSO (vehicle control), or 0.5 μM and 0.05 μM, respectively, of compound A. Cells were harvested 48 h after addition of TNFα. RNA was isolated from the samples and the amount of amplicon of TNFα (and of other cytokines) and of several housekeeping genes was measured by light cycler-based Real-Time PCR.
Background: Quantitative PCR measures a nucleic acid by following its amplification.

T1 sequence (P06493 whole entry): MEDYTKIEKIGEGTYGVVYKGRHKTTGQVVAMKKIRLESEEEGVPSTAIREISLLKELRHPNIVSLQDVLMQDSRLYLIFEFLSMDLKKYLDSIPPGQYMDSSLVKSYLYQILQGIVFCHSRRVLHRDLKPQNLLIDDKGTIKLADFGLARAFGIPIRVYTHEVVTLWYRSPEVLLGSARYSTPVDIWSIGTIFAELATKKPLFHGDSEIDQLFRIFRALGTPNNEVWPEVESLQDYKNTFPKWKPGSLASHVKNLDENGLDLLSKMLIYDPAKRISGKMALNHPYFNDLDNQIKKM
T1 sequence (P14635 whole entry partner): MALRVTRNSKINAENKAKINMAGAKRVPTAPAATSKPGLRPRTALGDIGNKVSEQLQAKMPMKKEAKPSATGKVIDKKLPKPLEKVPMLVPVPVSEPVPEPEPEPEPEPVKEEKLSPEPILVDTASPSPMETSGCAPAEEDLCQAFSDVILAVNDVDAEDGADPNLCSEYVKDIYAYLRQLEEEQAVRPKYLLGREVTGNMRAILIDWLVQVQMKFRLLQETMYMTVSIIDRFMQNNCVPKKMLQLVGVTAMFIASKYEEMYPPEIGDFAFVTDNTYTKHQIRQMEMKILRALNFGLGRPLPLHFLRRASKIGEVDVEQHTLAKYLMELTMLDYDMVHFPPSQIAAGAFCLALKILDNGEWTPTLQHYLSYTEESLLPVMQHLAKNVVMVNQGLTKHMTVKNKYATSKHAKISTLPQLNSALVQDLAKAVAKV

In the case of `COc1ccccc1-c1cc(Nc2cccc(S(N)(=O)=O)c2)ncn1` [Compound A], the IC50 on CDK1/CycB stood at 15.8 µM; against CDK9/CycT (CDK9/CycT) it was 0.63 µM. The “specificity for CDK9 over other CDKs” value at CDK9/CycT (from IC50 values of Table 1) was “high specificity for CDK9”. Further, in assay [1] (EOC20 cells without TNFα stimulation, 0.5 μM and 0.05 μM compound), the “TNFα message in unstimulated cells” value was “reduction of TNFα message”. Further, the “TNFα amplicon in TNFα-stimulated cells” value in assay [1] (EOC20 cells, TNFα 20 ng/ml, 0.5 μM and 0.05 μM compound 1 hour prior, harvested 48 h) was “dose-dependent reduction”.
